Test results as given in publication PMC6274076, “Discovery of Uracil Derivatives as Potent Inhibitors of Fatty Acid Amide Hydrolase” (Molecules, 2016).
Where “and” joins values, the source holds several entries; their conditions need not be identical. Identical values can stand only once. Like-named read-outs stand apart in the source and are kept apart here.

Assays:
[1] = biological target: T1, recombinant rat FAAH (rFAAH) (Rattus norvegicus, UniProt P97612); assay: FAAH enzyme activity assay (AEA hydrolysis, HPLC-MS/MS); type: biochemical; conditions: for FAAH inhibitory activity (in words): rFAAH enzyme assay; for fold decrease in FAAH inhibitory potency vs. compound 1: compared with parent compound 1
T1 construct: expressed in transfected cells; host or cells: HEK293-rFAAH cells (homogenate supernatant)
T1 sequence (P97612 1-579): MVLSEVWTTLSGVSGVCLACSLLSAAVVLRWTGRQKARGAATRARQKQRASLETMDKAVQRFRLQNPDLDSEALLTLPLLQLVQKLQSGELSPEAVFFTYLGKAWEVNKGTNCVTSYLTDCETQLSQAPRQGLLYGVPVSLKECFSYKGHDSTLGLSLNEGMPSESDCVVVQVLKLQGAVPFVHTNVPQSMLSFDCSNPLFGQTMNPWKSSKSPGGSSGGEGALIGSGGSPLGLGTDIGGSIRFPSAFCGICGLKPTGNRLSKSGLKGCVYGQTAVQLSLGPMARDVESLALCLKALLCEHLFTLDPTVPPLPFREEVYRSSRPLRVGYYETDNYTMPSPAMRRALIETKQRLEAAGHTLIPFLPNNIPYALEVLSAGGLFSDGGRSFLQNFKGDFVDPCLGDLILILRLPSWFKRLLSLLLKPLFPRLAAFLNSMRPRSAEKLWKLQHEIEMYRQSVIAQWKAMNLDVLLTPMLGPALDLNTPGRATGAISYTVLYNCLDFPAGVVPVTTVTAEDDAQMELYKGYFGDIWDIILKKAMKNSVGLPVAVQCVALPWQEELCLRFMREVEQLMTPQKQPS
Experimental: The substituted 2,4-dioxopyrimidine-1-carboxamides and the related analogues described above were subjected to in vitro biological evaluation toward recombinant rat FAAH derived from HEK293-rFAAH cell. Enzyme assays were performed at 37 °C by incubating 30 µg of rFAAH protein with 25 μM anandamide as substrate in Tris-HCl buffer containing fatty acid-free BSA (0.05%). When the reactions were terminated, 1 nmol heptadecanoic acid (17:0 FFA) was added as an internal standard. […] The hydrolyzate of AEA (arachidonic acid), together with heptadecanoic acid was detected in HPLC/MS/MS to estimate the potency of rFAAH inhibition according to the methods previously described.
The inhibition effects of uracil derivatives toward recombinant rat FAAH (rFAAH) were assessed by enzyme activity assay. HEK293-rFAAH cells were harvested, washed with PBS, sonicated in 20 mM Tris-HCl (pH 7.5) containing 0.32 M sucrose, and centrifuged at 800× g for 15 min at 4 °C. The supernatants were collected and protein concentrations were measured by BCA protein assay kit (Pierce, Shanghai, China). FAAH proteins (30 μg) were incubated at 37 °C for 30 min in Tris buffer (50 mM, pH = 8.0) containing fatty acid-free BSA (0.05%) and 25 μM AEA (Sigma-Aldrich, Shanghai, China) as substrate. The above reactions were stopped by adding 200 μL methanol containing 1 nmol heptadecanoic acid (17:0 FFA) as internal standard. The reaction mixture was extracted with 4 mL chloroform and then vortex for 1 min. Lipid layer was separated by centrifugation at 3000× g for 10 min and then transferred to a clean 10 mL V-bottom glass tube and dried under nitrogen (N2) flow. After redissolved with 1 mL CHCl3, the lipid solution went through the solid-phase extraction, and was eluted by methanol/chloroform (v/v, 1/9). The elution containing FAEs and FFAs was dried under N2, and reconstituted in 100 μL methanol for HPLC-MS/MS analysis.
Samples were detected by an ABI 3200 Q-Trap mass spectrometer (Applied Biosystems/MDS Sciex) equipped with 1100-LC system (Agilent, Shanghai, China). The mobile phase for FFAs detection was consisted of MeOH and ultra-pure H2O (pH = 7.4, each containing 0.25% acetic acid and 5 mmol/L ammonium acetate), and the elution condition was 95% methanol keeping for 3 min at a flow rate of 1.0 mL·min^−^1. The column temperature was kept at 40 °C. Ion detection was monitored by ESI negative mode. The molecular ions were monitored at m/z 303 for AA, and m/z 269 for C17:0 FFA. Inhibition curves and IC50 values of each compounds was calculated by GraphPad Prism (version 5.01, GraphPad Software Inc., San Diego, CA, USA).

[2] = rFAAH protein 30 μg from HEK293-rFAAH cells, 25 μM anandamide, 37 °C, 30 min, Tris buffer pH 8.0, read-out: IC50 of FAAH Inhibition
[3] = as stated in abstract, read-out: IC50 (FAAH inhibition)

Row | SMILES | IC50 [1, 2] | also measured
1 | CCCCCCNC(=O)n1ccc(=O)[nH]c1=O [Compound 1, N-Hexyl-2,4-dioxo-pyrimidine-1-carboxamide] | 0.11 ± 0.03 µM | 
2 | CCCCCCNC(=O)N1CCC(=O)NC1=O [Compound 2, N-Hexyl-2,4-dioxotetrahydropyrimidine-1-carboxamide] | > 10 µM | FAAH inhibitory activity (in words) [1]: no inhibitory activity
3 | CCCCCCNC(=O)N1CCCNC1=O [Compound 3, N-Hexyl-2-oxotetrahydropyrimidine-1-carboxamide] | > 10 µM | FAAH inhibitory activity (in words) [1]: loss of FAAH inhibitory activities
4 | CCCCCCNC(=O)n1ccc(=O)n(C)c1=O [Compound 4, N-Hexyl-3-methyl-2,4-dioxopyrimidine-1-carboxamide] | 0.86 ± 0.08 µM | fold decrease in FAAH inhibitory potency vs. compound 1 [1]: 8- to 10 fold
5 | CCCCCCNC(=O)n1cc(C)c(=O)[nH]c1=O [Compound 5, N-Hexyl-5-methyl-2,4-dioxopyrimidine-1-carboxamide] | 0.25 ± 0.03 µM | fold decrease in FAAH inhibitory potency vs. compound 1 [1]: 2- to 3 fold
6 | CCCCCCNC(=O)n1c(C)cc(=O)[nH]c1=O [Compound 6, N-Hexyl-6-methyl-2,4-dioxopyrimidine-1-carboxamide] | 1.27 ± 0.21 µM | fold decrease in FAAH inhibitory potency vs. compound 1 [1]: 8- to 10 fold
7 | O=C(NCCc1ccccc1)n1ccc(=O)[nH]c1=O [Compound 7, N-(2-Phenylethyl)-2,4-dioxopyrimidine-1-carboxamide] | 0.3 ± 0.07 µM | fold decrease in FAAH inhibitory potency vs. compound 1 [1]: 3 fold
8 | Cc1cn(C(=O)NCCc2ccccc2)c(=O)[nH]c1=O [Compound 8, 5-Methyl-N-(2-phenylethyl)-2,4-dioxopyrimidine-1-carboxamide] | 1.07 ± 0.14 µM | 
9 | COc1cn(C(=O)NCCc2ccccc2)c(=O)[nH]c1=O [Compound 9, 5-Methoxy-N-(2-phenylethyl)-2,4-dioxopyrimidine-1-carboxamide] | 0.53 µM and 0.531 µM | 
10 | O=C(NCCc1ccccc1)n1cc(F)c(=O)[nH]c1=O [Compound 10, 5-Fluoro-N-(2-phenylethyl)-2,4-dioxopyrimidine-1-carboxamide] | 0.098 ± 0.01 µM | 
11 | O=C(NCCc1ccccc1)n1cc(C(F)(F)F)c(=O)[nH]c1=O [Compound 11, N-(2-Phenylethyl)-5-trifluoromethyl-2,4-dioxopyrimidine-1-carboxamide] | 0.021 ± 0.004 µM | IC50 [1, 3]: 0.021 µM
12 | O=C(NCc1ccc2ccccc2c1)n1ccc(=O)[nH]c1=O [Compound 12] |  | melting point: 84 to 84.6 °C
13 | O=C(NCc1ccc(-c2ccccc2)cc1)n1ccc(=O)[nH]c1=O [Compound 14, N-[2-(4-Biphenyl)methyl]-2,4-dioxopyrimidine-1-carboxamide] | 0.053 ± 0.006 µM | IC50 [1, 3]: 0.053 µM
14 | O=C(NCc1ccc(-c2ccccc2)cc1)n1cc(F)c(=O)[nH]c1=O [Compound 15, N-[2-(4-biphenyl)methyl]-5-fluoro-2,4-dioxo-pyrimidine-1-carboxamide] | 0.1 ± 0.01 µM | fold less potent vs. compound 14 ([1]; compared with compound 14): 2 fold
15 | O=C(Nc1cn(C(=O)NCCc2ccccc2)c(=O)[nH]c1=O)OCc1ccccc1 [Compound 16, Benzyl (2,4-dioxo-1-{[(2-phenylethyl)amino]carbonyl}-1,2,3,4-tetrahydro-5-pyrimidinyl)carbamate (2H)-carboxamide] | 0.12 ± 0.03 µM | increase of FAAH inhibitory potency vs. compound 17 ([1]; compared with compound 17): about 10 times
16 | Nc1cn(C(=O)NCCc2ccccc2)c(=O)[nH]c1=O [Compound 17, 5-Amino-N-(2-phenylethyl)-2,4-dioxopyrimidine-1-carboxamide] | 1.33 ± 0.13 µM | 
17 | O=C(NCCc1ccccc1)n1cc(O)c(=O)[nH]c1=O [Compound 18, 5-hydroxy-N-(2-phenylethyl)-2,4-dioxopyrimidine-1-carboxamide] | 0.54 ± 0.07 µM | 
18 | CCCCCCCn1ccc(=O)[nH]c1=O [Compound 19, 1-Heptyl-2,4-dioxopyrimidine] | > 100 µM | FAAH inhibitory activity (in words) [1]: not inhibited at all
19 | CCCCCCCn1cc(F)c(=O)[nH]c1=O [Compound 20, 5-Fluoro-1-heptyl-2,4-dioxopyrimidine] | > 100 µM | FAAH inhibitory activity (in words) [1]: not inhibited at all
20 | CCCCCCNC(=O)Cn1cc(F)c(=O)[nH]c1=O [Compound 21, 2-[5-Fluoro-2,4-dioxopyrimidinyl]-N-hexylacetamide] | > 100 µM | FAAH inhibitory activity (in words) [1]: total loss of the FAAH inhibitory activity
